Measurements as given in the supplement of paper PMC5412046.
Where a name gives a salt, the structure may show the parent alone.

Experiments:
SB.mhdgc-1 [1] = assay: area under the dose-response curve of % viability (trapezoidal, 11 doses) (% viability x log10 concentration); higher = less cytotoxic; conditions: SB.mhdgc-1 (hereditary c.1380delA CDH1 gastric cancer)
Method in brief: (§1)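 Using a pintool, 23 nL of compound in DMSO was transferred at 11 threefold-diluted concentrations onto patient-derived gastric cancer cells, hereditary or sporadic, plated at 500 cells in 5 μL medium per 1536 well. CellTiter-Glo luminescence was read after 48 h. Each value is viability normalised to DMSO, either at the highest concentration or as trapezoidal area under the curve.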

SB.msgc-1 [2] = assay: as above; conditions: SB.msgc-1 (sporadic gastric cancer)
Method in brief: as §1

SB.mhdgc-1 [3] = assay: viability at highest tested concentration (MAXR) relative to DMSO; higher = less cytotoxic; conditions: SB.mhdgc-1 (hereditary c.1380delA CDH1 gastric cancer)
Method in brief: as §1

SB.msgc-1 [4] = assay: as above; conditions: SB.msgc-1 (sporadic gastric cancer)
Method in brief: as §1

CN1C(=O)/C(=C(NC2=CC=C(I)C=C2F)\C3=C1\N=C/N(C[C@@H](O)CO)C3=O)F [TAK-733] (top concentration 46.0829 µM)
area under the dose-response curve (SB.mhdgc-1 [1]): 317 | area under the dose-response curve (SB.msgc-1 [2]): 407 | viability (SB.mhdgc-1 [3]): 34.3% | viability (SB.msgc-1 [4]): 47.1%

C[C@H]1C[C@H]2[C@@H]3CCC4=CC(=O)C=C[C@]4(C)[C@@]3(F)[C@@H](O)C[C@]2(C)[C@@]1(O)C(=O)CO [Dexamethasone] (top concentration 46.0829 µM)
area under the dose-response curve (SB.mhdgc-1 [1]): 556 | area under the dose-response curve (SB.msgc-1 [2]): 558 | viability (SB.mhdgc-1 [3]): 120% | viability (SB.msgc-1 [4]): 118%

CCC1(c2ccc(N)cc2)CCC(=O)NC1=O (stereo not drawn) [Aminoglutethimide] (top concentration 46.0829 µM)
area under the dose-response curve (SB.mhdgc-1 [1]): 537 | area under the dose-response curve (SB.msgc-1 [2]): 547 | viability (SB.mhdgc-1 [3]): 110% | viability (SB.msgc-1 [4]): 116%

C/C(O)=C(\C#N)C(=O)Nc1ccc(C(F)(F)F)cc1 [Teriflunomide] (top concentration 46.0829 µM)
area under the dose-response curve (SB.mhdgc-1 [1]): 515 | area under the dose-response curve (SB.msgc-1 [2]): 464 | viability (SB.mhdgc-1 [3]): 13.5% | viability (SB.msgc-1 [4]): 20.3%

CCc1cccc2c3c([nH]c12)C(CC)(CC(=O)O)OCC3 (stereo not drawn) [Etodolac] (top concentration 46.0829 µM)
area under the dose-response curve (SB.mhdgc-1 [1]): 580 | area under the dose-response curve (SB.msgc-1 [2]): 462 | viability (SB.mhdgc-1 [3]): 98.9% | viability (SB.msgc-1 [4]): 89.3%

CN(C)[C@@H](CCOc1cccc2ccccc12)c1ccccc1 [Dapoxetine hydrochloride] (top concentration 46.0829 µM)
area under the dose-response curve (SB.mhdgc-1 [1]): 463 | area under the dose-response curve (SB.msgc-1 [2]): 516 | viability (SB.mhdgc-1 [3]): 15.4% | viability (SB.msgc-1 [4]): 47%

CC(NC1=CC=CC=C1)C\2=C\C(=C/N3C(=O)\C=C(/N=C23)N4CCOCC4)C (stereo not drawn) [TGX-221] (top concentration 46.0829 µM)
area under the dose-response curve (SB.mhdgc-1 [1]): 324 | area under the dose-response curve (SB.msgc-1 [2]): 428 | viability (SB.mhdgc-1 [3]): 34.9% | viability (SB.msgc-1 [4]): 47.8%

COc1cc(OC)c(OC)cc1C=O [Asaraldehyde] (top concentration 46.0829 µM)
area under the dose-response curve (SB.mhdgc-1 [1]): 520 | area under the dose-response curve (SB.msgc-1 [2]): 510 | viability (SB.mhdgc-1 [3]): 117% | viability (SB.msgc-1 [4]): 106%

N[C@@H](C(=O)N[C@H]1[C@H]2SC\C(=C(/N2C1=O)C(O)=O)Cl)C3=CC=CC=C3 [Cefaclor] (top concentration 46.0829 µM)
area under the dose-response curve (SB.mhdgc-1 [1]): 430 | area under the dose-response curve (SB.msgc-1 [2]): 545 | viability (SB.mhdgc-1 [3]): 169% | viability (SB.msgc-1 [4]): 112%

C[C@@H]1C[C@H]2[C@@H]3\C=C(C)/C4=C/C5=C(C[C@]4(C)[C@H]3[C@@H](O)C[C@]2(C)[C@@]1(O)C(=O)CO)C=N[N]5C6=CC=CC=C6 [Deacetyl cortivazol] (top concentration 46.0829 µM)
area under the dose-response curve (SB.mhdgc-1 [1]): 391 | area under the dose-response curve (SB.msgc-1 [2]): 508 | viability (SB.mhdgc-1 [3]): 20.9% | viability (SB.msgc-1 [4]): 27.5%

C[C@@H](N)C1CC[C@@H](CC1)C(=O)NC2=CC=NC=C2 (stereo partly drawn) (top concentration 46.0829 µM)
area under the dose-response curve (SB.mhdgc-1 [1]): 494 | area under the dose-response curve (SB.msgc-1 [2]): 577 | viability (SB.mhdgc-1 [3]): 83.4% | viability (SB.msgc-1 [4]): 108%

Clc1ccccc1CN1CCc2sccc2C1 [Ticlopidine hydrochloride] (top concentration 46.0829 µM)
area under the dose-response curve (SB.mhdgc-1 [1]): 536 | area under the dose-response curve (SB.msgc-1 [2]): 552 | viability (SB.mhdgc-1 [3]): 119% | viability (SB.msgc-1 [4]): 108%

COc1cc(O)c2c(c1)C1OC1C[C@H](O)[C@H](O)C(=O)/C=C\C[C@H](C)OC2=O (stereo partly drawn) [Hypothemycin] (top concentration 46.0829 µM)
area under the dose-response curve (SB.mhdgc-1 [1]): 394 | area under the dose-response curve (SB.msgc-1 [2]): 494 | viability (SB.mhdgc-1 [3]): 5.84% | viability (SB.msgc-1 [4]): 14.6%

COc1cc2c(Nc3ccc(Cl)c(Cl)c3F)ncnc2cc1OCC1C[C@@H]2CN(C)C[C@@H]2C1 (stereo partly drawn) [XL-647] (top concentration 46.0829 µM)
area under the dose-response curve (SB.mhdgc-1 [1]): 293 | area under the dose-response curve (SB.msgc-1 [2]): 225 | viability (SB.mhdgc-1 [3]): 1.67% | viability (SB.msgc-1 [4]): 49.7%

O=C(Nc1cccc(Cl)c1)Nc1ncc(CCNc2ncnc3ccsc23)s1 [SNS-314] (top concentration 46.0829 µM)
area under the dose-response curve (SB.mhdgc-1 [1]): 391 | area under the dose-response curve (SB.msgc-1 [2]): 480 | viability (SB.mhdgc-1 [3]): 47.7% | viability (SB.msgc-1 [4]): 70.4%

O=c1[nH]cnc2c1ncn2[C@H]1CC[C@@H](CO)O1 [Didanosine] (top concentration 46.0829 µM)
area under the dose-response curve (SB.mhdgc-1 [1]): 564 | area under the dose-response curve (SB.msgc-1 [2]): 470 | viability (SB.mhdgc-1 [3]): 3.57% | viability (SB.msgc-1 [4]): 61.5%

NC(=O)c1cnccn1 [Pyrazinamide] (top concentration 46.0829 µM)
area under the dose-response curve (SB.mhdgc-1 [1]): 475 | area under the dose-response curve (SB.msgc-1 [2]): 553 | viability (SB.mhdgc-1 [3]): 109% | viability (SB.msgc-1 [4]): 112%

C[C@]12CC[C@@H]3c4ccc(O)cc4CC[C@H]3[C@@H]1C[C@@H](O)[C@@H]2O [Estriol] (top concentration 46.0829 µM)
area under the dose-response curve (SB.mhdgc-1 [1]): 513 | area under the dose-response curve (SB.msgc-1 [2]): 517 | viability (SB.mhdgc-1 [3]): 106% | viability (SB.msgc-1 [4]): 91%

CC1(C)CC(=O)c2c(C(F)(F)F)nn(-c3ccc(C(N)=O)c(NC4CCC(O)CC4)c3)c2C1 (stereo not drawn) [SNX-2112] (top concentration 46.0829 µM)
area under the dose-response curve (SB.mhdgc-1 [1]): 362 | area under the dose-response curve (SB.msgc-1 [2]): 311 | viability (SB.mhdgc-1 [3]): 44.6% | viability (SB.msgc-1 [4]): 48.4%

CC1=CC(=CC(=C1C\C2=N\CCN2)C)C(C)(C)C [Xylometazoline hydrochloride] (top concentration 46.0829 µM)
area under the dose-response curve (SB.mhdgc-1 [1]): 460 | area under the dose-response curve (SB.msgc-1 [2]): 539 | viability (SB.mhdgc-1 [3]): 63.3% | viability (SB.msgc-1 [4]): 90.3%

O=C(c1ccc(Nc2nccc(-c3cc4ccccc4s3)n2)cc1)N1CCC(N2CCCC2)CC1 [IKK16] (top concentration 46.0829 µM)
area under the dose-response curve (SB.mhdgc-1 [1]): 414 | area under the dose-response curve (SB.msgc-1 [2]): 478 | viability (SB.mhdgc-1 [3]): 3.3% | viability (SB.msgc-1 [4]): 7.01%

OCc1ccccc1O[C@@H]1O[C@H](CO)[C@@H](O)[C@H](O)[C@H]1O [Salicin] (top concentration 46.0829 µM)
area under the dose-response curve (SB.mhdgc-1 [1]): 509 | area under the dose-response curve (SB.msgc-1 [2]): 466 | viability (SB.mhdgc-1 [3]): 119% | viability (SB.msgc-1 [4]): 93.9%
